Source: the NIST ThermoML archive (doi:10.1021/acs.jced.8b00692)
± gives the expanded uncertainty stated by the source.

Assay: xn = mol fraction of the nth substance listed
Details: 102 kPa, Liquid; for viscosity: Concentric cylinders viscometry; for speed of sound: Frequency=3 MHz, Single path-length method; for mass density: Vibrating tube method

CCCCCCC1CCCCC1 [hexylcyclohexane] + CCCCCCCCCCCCCCCC
Details	mass density [kg/m3]	speed of sound [m/s]	viscosity [mPa·s]
293.15 K, x1 = 0.1003	775.83 ± 0.81	1357.1 ± 0.7	3.35 ± 0.03
293.15 K, x1 = 0.2002	778.43 ± 0.81	1356.8 ± 0.7	3.21 ± 0.02
293.15 K, x1 = 0.2996	781.19 ± 0.81	1356.9 ± 0.8	3.09 ± 0.02
293.15 K, x1 = 0.4192	784.77 ± 0.81	1357 ± 0.9	2.93 ± 0.02
293.15 K, x1 = 0.5004	787.39 ± 0.82	1357.1 ± 0.9	2.82 ± 0.02
293.15 K, x1 = 0.603	790.94 ± 0.82	1357.4 ± 1	2.7 ± 0.02
293.15 K, x1 = 0.8003	798.59 ± 0.83	1358.6 ± 1.2	2.44 ± 0.02
293.15 K, x1 = 1	807.71 ± 0.84	1361 ± 1.3	2.2 ± 0.02
303.15 K, x1 = 0.1003	768.88 ± 0.81	1319.8 ± 0.7	2.66 ± 0.02
303.15 K, x1 = 0.2002	771.48 ± 0.81	1319.5 ± 0.7	2.57 ± 0.02
303.15 K, x1 = 0.2996	774.23 ± 0.81	1319.6 ± 0.8	2.47 ± 0.02
303.15 K, x1 = 0.4192	777.8 ± 0.81	1319.6 ± 0.9	2.36 ± 0.02
303.15 K, x1 = 0.5004	780.41 ± 0.82	1319.7 ± 0.9	2.28 ± 0.02
303.15 K, x1 = 0.603	783.93 ± 0.82	1319.8 ± 1	2.19 ± 0.02
303.15 K, x1 = 0.8003	791.52 ± 0.83	1320.7 ± 1.2	2 ± 0.02
303.15 K, x1 = 1	800.56 ± 0.84	1322.1 ± 1.3	1.81 ± 0.02
313.15 K, x1 = 0.1003	761.95 ± 0.81	1283.2 ± 0.7	2.17 ± 0.02
313.15 K, x1 = 0.2002	764.54 ± 0.81	1282.8 ± 0.7	2.1 ± 0.02
313.15 K, x1 = 0.2996	767.28 ± 0.81	1282.9 ± 0.8	2.02 ± 0.02
313.15 K, x1 = 0.4192	770.83 ± 0.81	1282.8 ± 0.9	1.94 ± 0.02
313.15 K, x1 = 0.5004	773.42 ± 0.82	1282.9 ± 0.9	1.87 ± 0.02
313.15 K, x1 = 0.603	776.92 ± 0.82	1282.9 ± 1	1.8 ± 0.02
313.15 K, x1 = 0.8003	784.45 ± 0.83	1283.5 ± 1.2	1.65 ± 0.02
313.15 K, x1 = 1	793.4 ± 0.84	1284.2 ± 1.3	1.51 ± 0.02
323.15 K, x1 = 0.1003	755.02 ± 0.81	1247.3 ± 0.7	1.8 ± 0.01
323.15 K, x1 = 0.2002	757.6 ± 0.81	1246.9 ± 0.7	1.75 ± 0.01
323.15 K, x1 = 0.2996	760.32 ± 0.81	1246.9 ± 0.8	1.68 ± 0.01
323.15 K, x1 = 0.4192	763.85 ± 0.81	1246.7 ± 0.9	1.62 ± 0.01
323.15 K, x1 = 0.5004	766.42 ± 0.82	1246.7 ± 0.9	1.57 ± 0.01
323.15 K, x1 = 0.603	769.89 ± 0.82	1246.6 ± 1	1.52 ± 0.02
323.15 K, x1 = 0.8003	777.35 ± 0.83	1246.9 ± 1.2	1.4 ± 0.02
323.15 K, x1 = 1	786.22 ± 0.84	1247.1 ± 1.3	1.29 ± 0.02
333.15 K, x1 = 0.1003	748.09 ± 0.81	1212.3 ± 0.7	1.51 ± 0.01
333.15 K, x1 = 0.2002	750.65 ± 0.81	1211.9 ± 0.7	1.47 ± 0.01
333.15 K, x1 = 0.2996	753.35 ± 0.81	1211.7 ± 0.8	1.42 ± 0.01
333.15 K, x1 = 0.4192	756.86 ± 0.81	1211.5 ± 0.9	1.37 ± 0.01
333.15 K, x1 = 0.5004	759.41 ± 0.82	1211.4 ± 0.9	1.33 ± 0.01
333.15 K, x1 = 0.603	762.86 ± 0.82	1211.2 ± 1	1.29 ± 0.01
333.15 K, x1 = 0.8003	770.24 ± 0.83	1211.1 ± 1.2	1.2 ± 0.01
333.15 K, x1 = 1	779.02 ± 0.84	1211 ± 1.3	1.09 ± 0.01
343.15 K, x1 = 0.1003	741.2 ± 0.8	–	1.29 ± 0.01
343.15 K, x1 = 0.2002	743.7 ± 0.8	–	1.27 ± 0.01
343.15 K, x1 = 0.2996	746.5 ± 0.8	–	1.22 ± 0.01
343.15 K, x1 = 0.4192	749.9 ± 0.8	–	1.18 ± 0.01
343.15 K, x1 = 0.5004	752.4 ± 0.8	–	1.15 ± 0.01
343.15 K, x1 = 0.603	755.9 ± 0.8	–	1.13 ± 0.01
343.15 K, x1 = 0.8003	763.1 ± 0.8	–	1.05 ± 0.01
343.15 K, x1 = 1	771.8 ± 0.8	–	0.964 ± 0.013
353.15 K, x1 = 0.1003	734.2 ± 0.8	–	1.12 ± 0.01
353.15 K, x1 = 0.2002	736.7 ± 0.8	–	1.09 ± 0.01
353.15 K, x1 = 0.2996	739.5 ± 0.8	–	1.06 ± 0.01
353.15 K, x1 = 0.4192	742.9 ± 0.8	–	1.02 ± 0.01
353.15 K, x1 = 0.5004	745.4 ± 0.8	–	1 ± 0.01
353.15 K, x1 = 0.603	748.8 ± 0.8	–	0.971 ± 0.012
353.15 K, x1 = 0.8003	756 ± 0.8	–	0.919 ± 0.013
353.15 K, x1 = 1	764.6 ± 0.8	–	0.847 ± 0.013
363.15 K, x1 = 0.1003	727.3 ± 0.8	–	0.981 ± 0.012
363.15 K, x1 = 0.2002	729.7 ± 0.8	–	0.977 ± 0.012
363.15 K, x1 = 0.2996	732.5 ± 0.8	–	0.931 ± 0.012
363.15 K, x1 = 0.4192	735.9 ± 0.8	–	0.901 ± 0.012
363.15 K, x1 = 0.5004	738.3 ± 0.8	–	0.88 ± 0.012
363.15 K, x1 = 0.603	741.7 ± 0.8	–	0.873 ± 0.012
363.15 K, x1 = 0.8003	748.8 ± 0.8	–	0.817 ± 0.012
363.15 K, x1 = 1	757.3 ± 0.8	–	0.758 ± 0.012
